According to the supplement of paper PMC10307832:

Tests used:
Assay in all cases: relative viability (nuclei count vs DMSO), 5 days (fraction); higher = more cells survive
[1] = compound: Cn1cnc2c(F)c(Nc3ccc(Br)cc3Cl)c(C(=O)NOCCO)cc21 [Selumetinib] + Cc1nc(Nc2ncc(C(=O)Nc3c(C)cccc3Cl)s2)cc(N2CCN(CCO)CC2)n1 [Dasatinib] (partner 0.075 µM)
How it was run: (§1)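 The day after seeding in 1536-well plates, lung cancer cell lines were treated by pin tool with a single drug, or with a fixed anchor-drug dose together with five library-drug doses (not always all listed) in √10 steps. After 5 days, a combined fix-and-stain solution (final 0.05% Triton X-100, 1% formaldehyde, 1 ug/ml Hoechst) was added. Nuclei counted on 4× images gave relative viability as treated counts over vehicle counts, reported as the median of duplicate plates.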

[2] = compound: CC1(C)CCC(CN2CCN(c3ccc(C(=O)NS(=O)(=O)c4ccc(NCC5CCOCC5)c([N+](=O)[O-])c4)c(Oc4cnc5[nH]ccc5c4)c3)CC2)=C(c2ccc(Cl)cc2)C1 [Venetoclax] + CC(C)C[C@H](NC(=O)[C@H](Cc1ccccc1)NC(=O)c1cnccn1)B(O)O [Bortezomib] (partner 0.002 µM)
How it was run: as §1

[3] = compound: Cn1cnc2c(F)c(Nc3ccc(Br)cc3Cl)c(C(=O)NOCCO)cc21 [Selumetinib] + CCNC(=O)c1noc(-c2cc(C(C)C)c(O)cc2O)c1-c1ccc(CN2CCOCC2)cc1 [Luminespib] (partner 0.01 µM)
How it was run: as §1

[4] = compound: CC1(C)CCC(CN2CCN(c3ccc(C(=O)NS(=O)(=O)c4ccc(NCC5CCOCC5)c([N+](=O)[O-])c4)c(Oc4cnc5[nH]ccc5c4)c3)CC2)=C(c2ccc(Cl)cc2)C1 [Venetoclax] + Nc1ncn([C@H]2C[C@H](O)[C@@H](CO)O2)c(=O)n1 [Decitabine] (partner 2 µM)
How it was run: as §1

| Cell Line | relative viability ([1]; first compound 0.02 µM) | relative viability ([1]; first compound 0.06325 µM) | relative viability ([1]; first compound 0.2 µM) | relative viability ([1]; first compound 0.6325 µM) | relative viability ([2]; first compound 0.01 µM) | relative viability ([2]; first compound 0.03162 µM) | relative viability ([2]; first compound 0.1 µM) | relative viability ([2]; first compound 0.3162 µM) | relative viability ([2]; first compound 1 µM) | relative viability ([3]; first compound 0.02 µM) | relative viability ([3]; first compound 0.06325 µM) | relative viability ([3]; first compound 0.2 µM) | relative viability ([3]; first compound 0.6325 µM) | relative viability ([4]; first compound 0.01 µM) | relative viability ([4]; first compound 0.03162 µM) | relative viability ([4]; first compound 0.1 µM) | relative viability ([4]; first compound 0.3162 µM) | relative viability ([4]; first compound 1 µM) |
| --- | --- | --- | --- | --- | --- | --- | --- | --- | --- | --- | --- | --- | --- | --- | --- | --- | --- | --- |
| NCI-H23 | 0.808 | 0.644 | 0.5 | 0.397 | 0.95 | 0.952 | 1.06 | 1.07 | 0.9 | 0.24 | 0.215 | 0.188 | 0.175 | 0.322 | 0.298 | 0.337 | 0.316 | 0.317 |
| NCI-H322M | 0.248 | 0.237 | 0.24 | 0.263 | 1.37 | 1.18 | 1.27 | 1.2 | 1.2 | 0.739 | 0.547 | 0.572 | 0.481 | 0.709 | 0.695 | 0.685 | 0.804 | 0.747 |
| NCI-H441 | 0.602 | 0.363 | 0.41 | 0.307 | 0.651 | 0.91 | 0.532 | 0.451 | 0.476 | 0.25 | 0.272 | 0.204 | 0.28 | 0.235 | 0.219 | 0.208 | 0.23 | 0.24 |
| NCI-H460 | 0.332 | 0.272 | 0.155 | 0.128 | 1.06 | 1.06 | 1.06 | 1.03 | 0.904 | 0.0285 | 0.0384 | 0.041 | 0.0306 | 0.442 | 0.525 | 0.493 | 0.498 | 0.447 |
| NCI-H520 | 0.261 | 0.29 | 0.278 | 0.306 | 0.657 | 0.708 | 0.431 | 0.628 | 0.494 | 0.226 | 0.215 | 0.213 | 0.238 | 0.526 | 0.506 |  | 0.557 | 0.458 |
| NCI-H596 | 0.625 | 0.546 | 0.565 | 0.483 | 1.01 | 0.857 | 0.979 | 1.14 | 1.14 | 1.13 | 1.06 | 0.914 | 0.725 | 1.16 | 0.998 | 0.923 | 0.914 | 0.935 |
| NCI-H647 | 0.187 | 0.2 | 0.167 | 0.154 | 1.08 | 1.2 |  | 0.944 | 1.02 | 0.195 | 0.141 | 0.125 | 0.136 | 0.379 | 0.562 | 0.461 | 0.424 | 0.332 |
| NCI-H650 | 0.518 | 0.578 | 0.65 | 0.534 | 0.671 | 0.792 |  | 0.873 | 0.817 | 0.836 | 0.677 | 0.73 | 0.651 | 0.326 | 0.311 | 0.326 | 0.31 | 0.372 |
| NCI-H661 | 0.902 | 0.821 | 0.805 | 0.731 | 0.722 | 0.762 | 0.717 | 0.799 | 0.646 | 0.977 | 0.929 | 0.942 | 0.864 | 0.561 | 0.528 | 0.547 | 0.532 | 0.529 |
| NCI-H727 | 0.308 | 0.299 | 0.267 | 0.279 | 0.938 | 1.19 | 0.833 | 0.862 | 0.888 | 0.257 | 0.241 | 0.206 | 0.267 | 0.918 | 1.07 | 1.04 | 0.704 | 0.891 |
| NCI-H838 | 0.275 | 0.254 | 0.304 | 0.267 | 0.949 | 0.957 | 0.73 | 0.801 | 0.797 | 0.369 | 0.331 | 0.207 | 0.259 | 0.53 | 0.485 | 0.445 | 0.449 | 0.477 |
| NCI-H1355 | 0.717 | 0.631 | 0.543 | 0.413 | 1.27 | 1.23 | 1.2 | 1.11 | 1.18 | 0.665 | 0.736 | 0.6 | 0.476 | 0.372 | 0.351 | 0.402 | 0.37 | 0.362 |
| NCI-H1437 | 0.334 | 0.231 | 0.197 | 0.215 | 0.451 | 0.572 | 0.475 | 0.42 | 0.492 | 1.15 | 1.13 | 1.03 | 0.782 | 0.659 | 0.52 | 0.52 | 0.542 | 0.556 |
| NCI-H1650 | 0.333 | 0.298 | 0.323 | 0.337 | 0.217 | 0.218 |  | 0.205 | 0.184 | 0.194 | 0.2 | 0.198 | 0.202 | 0.545 | 0.422 | 0.408 | 0.407 | 0.363 |
| NCI-H1651 | 0.387 | 0.378 | 0.402 | 0.362 | 1.02 | 0.952 | 1.03 | 0.976 | 0.885 | 0.757 | 0.828 | 0.835 | 0.615 | 0.611 | 0.701 | 0.548 | 0.512 | 0.665 |
| NCI-H1666 | 0.759 | 0.831 | 0.837 | 0.729 | 0.773 | 0.931 | 0.676 | 0.706 | 0.593 | 0.996 | 0.829 | 0.943 | 0.757 | 0.719 | 0.783 | 0.748 | 0.676 | 0.741 |
| NCI-H1734 | 0.506 | 0.531 | 0.466 | 0.549 | 0.815 | 1.07 | 0.921 | 0.946 | 0.914 | 0.195 | 0.176 | 0.17 | 0.152 | 0.464 | 0.515 | 0.504 | 0.474 | 0.493 |
| NCI-H1755 | 0.417 | 0.388 | 0.407 | 0.476 | 0.993 | 1.01 | 0.911 | 0.965 | 0.943 | 0.715 | 0.531 | 0.495 | 0.368 | 0.737 | 0.754 | 0.714 | 0.739 | 0.713 |
